What was measured:
[1] = molecular target: human recombinant PLK4 (Homo sapiens (Human), UniProt O00444); assay: PLK4 Biochemical Assay (ADP-Glo); details: 0.5 nM PLK4, 8.0 µM ATP, 4.7 µM MBP, 6 hours at RT
Procedure, shortened: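 Recombinant human PLK4 (added at 1.0 nM) was preincubated 15 min at RT with compound in 50 mM HEPES pH 7.5, 10 mM MgCl2, 1 mM EGTA, 1 mM DTT, 0.01% Brij-35, 0.01% BSA. ADP formed was detected by ADP-Glo luminescence (40 min ATP depletion, 30 min detection). IC50 came from a four-parameter fit.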

[2] = system: CHP-134 cells; assay: CHP134 CellTiter-Glo (CTG) Assay; type: cell-based; details: Homo sapiens, CHP-134, 120 h, 5 days, viable cells by CellTiter-Glo
Procedure, shortened: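 CHP-134 cells seeded at 200 cells/well for 16 h, then given nine 1:3 serial dilutions in quadruplicate at 37° C, 5% CO2. Viable cells measured by CellTiter-Glo luminescence after 5 days; IC50 calculated from curves.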

[3] = molecular target: human recombinant Aurora A (Homo sapiens (Human), UniProt O14965); assay: Aurora A Kinase Biochemical Assay (ADP-Glo); details: ratio of Aurora A IC50 to PLK4 IC50 (selectivity)
[4] = molecular target: human recombinant Aurora B (Homo sapiens (Human), UniProt Q96GD4); assay: Aurora B Kinase Biochemical Assay (ADP-Glo); details: ratio of Aurora B IC50 to PLK4 IC50 (selectivity)
Procedure, shortened: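 Recombinant human Aurora B (20 nM in pH 7.5 HEPES buffer with MgCl2, EGTA, DTT, Brij-35, BSA) preincubated with compound 15 min at RT. ADP formed quantified by ADP-Glo luminescence after ATP depletion (40 min) and detection (30 min). IC50 from four-parameter non-linear regression.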

Sequence of human recombinant PLK4 (O00444 whole entry): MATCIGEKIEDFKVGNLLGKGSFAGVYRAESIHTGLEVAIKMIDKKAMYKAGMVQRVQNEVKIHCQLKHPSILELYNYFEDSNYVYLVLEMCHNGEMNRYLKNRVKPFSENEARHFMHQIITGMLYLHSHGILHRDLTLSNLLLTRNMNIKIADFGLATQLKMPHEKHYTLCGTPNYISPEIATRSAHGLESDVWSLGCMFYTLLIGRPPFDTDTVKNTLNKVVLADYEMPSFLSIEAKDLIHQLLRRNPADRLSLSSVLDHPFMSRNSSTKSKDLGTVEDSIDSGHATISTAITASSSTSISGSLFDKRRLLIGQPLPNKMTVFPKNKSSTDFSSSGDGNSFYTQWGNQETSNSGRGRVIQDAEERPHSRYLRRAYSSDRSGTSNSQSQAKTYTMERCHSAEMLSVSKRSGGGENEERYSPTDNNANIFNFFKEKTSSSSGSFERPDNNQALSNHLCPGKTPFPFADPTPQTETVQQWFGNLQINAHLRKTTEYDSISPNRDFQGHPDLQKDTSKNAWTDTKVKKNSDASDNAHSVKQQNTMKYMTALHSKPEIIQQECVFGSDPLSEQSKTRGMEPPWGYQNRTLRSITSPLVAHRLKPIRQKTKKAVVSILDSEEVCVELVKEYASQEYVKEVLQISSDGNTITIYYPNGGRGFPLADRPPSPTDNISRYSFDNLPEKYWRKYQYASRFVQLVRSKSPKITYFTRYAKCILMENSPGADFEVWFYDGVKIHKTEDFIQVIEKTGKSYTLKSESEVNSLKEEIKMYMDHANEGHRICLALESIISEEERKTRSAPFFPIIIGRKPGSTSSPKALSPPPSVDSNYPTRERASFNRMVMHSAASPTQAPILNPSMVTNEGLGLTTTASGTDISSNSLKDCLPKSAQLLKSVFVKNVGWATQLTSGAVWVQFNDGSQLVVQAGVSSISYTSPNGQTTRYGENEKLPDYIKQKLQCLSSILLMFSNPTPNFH
Sequence of human recombinant Aurora A (O14965 whole entry): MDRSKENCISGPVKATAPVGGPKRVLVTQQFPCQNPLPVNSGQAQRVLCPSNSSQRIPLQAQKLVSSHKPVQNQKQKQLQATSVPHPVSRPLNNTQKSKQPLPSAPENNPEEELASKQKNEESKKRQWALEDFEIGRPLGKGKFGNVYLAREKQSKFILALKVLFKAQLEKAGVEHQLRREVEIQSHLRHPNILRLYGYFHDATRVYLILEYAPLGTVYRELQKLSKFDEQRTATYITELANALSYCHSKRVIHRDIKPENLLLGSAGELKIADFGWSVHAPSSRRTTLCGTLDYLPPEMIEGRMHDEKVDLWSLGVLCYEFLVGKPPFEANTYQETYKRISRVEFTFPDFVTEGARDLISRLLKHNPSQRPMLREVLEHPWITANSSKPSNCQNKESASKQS
Sequence of human recombinant Aurora B (Q96GD4 whole entry): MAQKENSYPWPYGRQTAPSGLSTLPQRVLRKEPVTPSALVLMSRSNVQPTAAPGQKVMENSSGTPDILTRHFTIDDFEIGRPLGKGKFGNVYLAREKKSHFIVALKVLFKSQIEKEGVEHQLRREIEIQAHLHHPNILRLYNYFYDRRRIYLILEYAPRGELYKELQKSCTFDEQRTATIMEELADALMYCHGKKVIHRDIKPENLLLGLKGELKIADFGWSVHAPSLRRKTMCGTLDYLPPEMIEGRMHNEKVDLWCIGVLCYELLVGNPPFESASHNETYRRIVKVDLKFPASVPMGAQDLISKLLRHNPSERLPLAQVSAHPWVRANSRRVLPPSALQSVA

Row | Compound | IC50 [1] | [Aurora A IC50 (nM)]/[PLK4 IC50 (nM)] [3] | [Aurora B IC50 (nM)]/[PLK4 IC50 (nM)] [4] | IC50 [2]
1 | COc1ccc2c(c1)[C@]1(C[C@H]1c1ccc3c(Nc4cc(C(=O)N(C)C)ncc4OC)n[nH]c3c1)C(=O)N2 [Example 198, 5-methoxy-4-({6-[(1R,2S)-5′-methoxy-2′-oxo-1′,2′-dibydrospiro[cyclopropane-1,3′-indol]-2-yl]-1H-indazol-3-yl}amino)-N,N-dimethylpyridine-2-carboxamide] | 8.69 nM | 5752.4160 | 5752.4160 | 10000 nM
2 | CCOc1nc(S(C)(=O)=O)ccc1Nc1n[nH]c2cc([C@@H]3C[C@@]34C(=O)Nc3ccc(OC)cc34)ccc12 [Example 202, (1R,2S)-2-(3-{[2-ethoxy-6-(methanesulfonyl)pyridin-3-yl]amino}-1H-indazol-6-yl)-5′-methoxyspiro[cyclopropane-1,3′-indol]-2′(1′H)-one] | 2.68 nM | 1031.3433 | 321.4179 | 422 nM
3 | COc1ccc2c(c1)[C@]1(C[C@H]1c1ccc3c(Nc4ccc(P(C)(C)=O)nc4OC)n[nH]c3c1)C(=O)N2 [Example 205, (1R,2S)-2-(3-{[6-(dimethylphosphoryl)-2-methoxypyridin-3-yl]amino}-1H-indazol-6-yl)-5′-methoxyspiro[cyclopropane-1,3′-indol]-2′(1′H)-one] | 1.64 nM | 737.5152 | 235.7491 | 3440 nM
4 | CCS(=O)(=O)c1ccc(Nc2n[nH]c3cc([C@@H]4C[C@@]45C(=O)Nc4ccc(OC)cc45)ccc23)c(OC)n1 [Example 209, (1R,2S)-2-(3-{[6-(ethanesulfonyl)-2-methoxypyridin-3-yl]amino}-1H-indazol-6-yl)-5′-methoxyspiro[cyclopropane-1,3′-indol]-2′(1′H)-one] | 1.54 nM | 273.2595 | 254.6519 | 606 nM
5 | COc1ccc2c(c1)[C@]1(C[C@H]1c1ccc3c(Nc4cc(OC)c(S(N)(=O)=O)cc4OC)n[nH]c3c1)C(=O)N2 [Example 212, 2,5-Dimethoxy-4-({6-[(1R,2S)-5′-methoxy-2′-oxo-l′,2′-dihydrospiro[cyclopropane-1,3′-indol]-2-yl]-1H-indazol-3-yl}amino)benzene-1-sulfonamide] | 1.58 nM | 353.1230 | 280 | 161 nM
6 | COc1ccc2c(c1)[C@]1(C[C@H]1c1ccc3c(Nc4nc(N(C)C)nc5c4CCC5)n[nH]c3c1)C(=O)N2 [Example 213, (1R,2S)-2-(3-{[2-(dimethylamino)-6,7-dihydro-5H-cyclopenta[d]pyrimidin-4-yl]amino}-1H-indazol-6-yl)-5′-methoxyspiro[cyclopropane-1,3′-indol]-2′(1′H)-one] | 2.13 nM | 92.2102 | 225.3871 | 190 nM
7 | COc1ccc2c(c1)[C@]1(C[C@H]1c1ccc3c(Nc4ccc(N5CCCC5=O)nc4OC)n[nH]c3c1)C(=O)N2 [Example 215, (1R,2S)-5′-methoxy-2-(3-{[2-methoxy-6-(2-oxopyrrolidin-1-yl)pyridin-3-yl]amino}-1H-indazol-6-yl)spiro[cyclopropane-1,3′-indol]-2′(1′H)-one] | 2.1 nM | 986.6539 | 53.57 | 192 nM
8 | COc1ccc2c(c1)[C@]1(C[C@H]1c1ccc3c(Nc4cc(S(=O)(=O)N5CCOCC5)ccc4OC)n[nH]c3c1)C(=O)N2 [Example 216, (1R,2S)-5′-methoxy-2-{3-[2-methoxy-5-(morpholine-4-sulfonyl)anilino]-1H-indazol-6-yl}spiro[cyclopropane-1,3′-indol]-2′(1′H)-one] | 2.69 nM | 7712 | 18601.19048 | 766 nM
9 | COc1ccc2c(c1)[C@]1(C[C@H]1c1ccc3c(Nc4ccc(C(=O)NNC(C)C)nc4OC)n[nH]c3c1)C(=O)N2 [Example 219, 6-methoxy-5-({6-[(1R,2S)-5′-methoxy-2′-oxo-1′,2′-dihydrospiro[cyclopropane-1,3′-indol]-2-yl]-1H-indazol-3-yl}amino)-N′-(propan-2-yl)pyridine-2-carbohydrazide] | 2.5 nM | 763.5782 | 64.2571 | 510 nM
10 | COc1ccc2c(c1)[C@]1(C[C@H]1c1ccc3c(Nc4ccc(S(=O)(=O)N(C)C)nc4OC)n[nH]c3c1)C(=O)N2 [Example 222, 6-methoxy-5-({6-[(1R,2S)-5′-methoxy-2′-oxo-1′,2′-dihydrospiro[cyclopropane-1,3′-indol]-2-yl]-1H-indazol-3-yl}amino)-N,N-dimethylpyridine-2-sulfonamide] | 1.36 nM | 446.1368 | 546.4311 | 456 nM

Further compounds by falling IC50 [1], results first:

Row | IC50 [1] | [Aurora A IC50 (nM)]/[PLK4 IC50 (nM)] [3] | [Aurora B IC50 (nM)]/[PLK4 IC50 (nM)] [4] | Compound | IC50 [2]
11 | 1.35 nM | 462.3887 | 316.5430 | CNS(=O)(=O)c1cc(OC)c(Nc2n[nH]c3cc([C@@H]4C[C@@]45C(=O)Nc4ccc(OC)cc45)ccc23)cc1C [Example 210, 5-methoxy-4-({6-[(1R,2S)-5′-methoxy-2′-oxo-1′,2′-dihydrospiro[cyclopropane-1,3′-indol]-2-yl]-1H-indazol-3-yl}amino)-N,2-dimethylbenzene-1-sulfonamide] | 65.5 nM
12 | 1.19 nM | 416.7367 | 170.9840 | COc1ccc2c(c1)[C@]1(C[C@H]1c1ccc3c(Nc4nc5cccnc5cc4OC)n[nH]c3c1)C(=O)N2 [Example 217, (1R,2S)-5′-methoxy-2-{3-[(3-methoxy-1,5-naphthyridin-2-yl)amino]-1H-indazol-6-yl}spiro[cyclopropane-1,3′-indol]-2′(1′H)-one] | 450 nM
13 | 1.04 nM | 2922.2649 | 333.7812 | CCOc1cc(C(=O)N(C)C)cnc1Nc1n[nH]c2cc([C@@H]3C[C@@]34C(=O)Nc3ccc(OC)cc34)ccc12 [Example 203, 5-ethoxy-6-({6-[(1R,2S)-5′-methoxy-2′-oxo-1’,2′-dihydrospiro[cyclopropane-1,3′-indol]-2-yl]-1H-indazol-3-yl}amino)-N,N-dimethylpyridine-3-carboxamide] | 324 nM
14 | 1.01 nM | 953 | 59.0999 | CCOc1nc(C(=O)N(C)C)ccc1Nc1n[nH]c2cc([C@@H]3C[C@@]34C(=O)Nc3ccc(OC)cc34)ccc12 [Example 214, 6-ethoxy-5-({6-[(1R,2S)-5′-methoxy-2′-oxo-1′,2′-dihydrospiro[cyclopropane-1,3′-indol]-1-yl]-1H-indazol-3-yl}amino)-N,N-dimethylpyridine-2-carboxamide] | 32.2 nM
15 | 0.955 nM | 806.5968 | 70.8586 | COc1ccc2c(c1)[C@]1(C[C@H]1c1ccc3c(Nc4ccc(C(=O)N(C)OC)nc4OC)n[nH]c3c1)C(=O)N2 [Example 218, N,6-dimethoxy-5-({6-[(1R,2S)-5′-methoxy-2′-oxo-1′,2′-dihydrospiro[cyclopropane-1,3′-indol]-2-yl]-1H-indazol-3-yl}amino)-N-methylpyridine-2-carboxamide] | 73.8 nM
16 | 0.897 nM | 7904 | 2471 | CCOc1cc(S(C)(=O)=O)cnc1Nc1n[nH]c2cc([C@@H]3C[C@@]34C(=O)Nc3ccc(OC)cc34)ccc12 [Example 208, (1R,2S)-2-(3-{[3-ethoxy-5-(methanesulfonyl)pyridin-2-yl]amino}-1H-indazol-6-yl)-5′-methoxyspiro[cyclopropano-1,3′-indol]-2′(1′H)-one] | 402 nM
17 | 0.81 nM | 342.9630 | 222.8395 | COc1ccc2c(c1)[C@]1(C[C@H]1c1ccc3c(Nc4ncc(S(=O)(=O)N(C)C)cc4OC)n[nH]c3c1)C(=O)N2 [Example 204, 5-methoxy-6-({6-[(1R,2S)-5′-methoxy-2′-oxo-1’,2′-dihydrospiro[cyclopropane-1,3′-indol]-2-yl]-1H-indazol-3-yl}amino)-N,N-dimethylpyridine-3-sulfonamide] | 122 nM
18 | 0.716 nM | 439.9441 | 57.7095 | COc1ccc2c(c1)[C@]1(C[C@H]1c1ccc3c(Nc4ccc(C(=O)N5CCOCC5)cc4OC)n[nH]c3c1)C(=O)N2 [Example 199, (1R,2S)-5′-methoxy-2-{3-[2-methoxy-4-(morpholine-4-carbonyl)anilino]-1H-indazol-6-yl}spiro[cyclopropane-1,3′-indol]-2′(1′H)-one] | 108 nM

From patent US20230365537A1, “POLO LIKE KINASE 4 INHIBITORS” (ORIC Pharmaceuticals, Inc., priority 2021, published 2023)
